This note sets out measurements from patent US10233180B2, “Substituted nitrogen-containing heterocyclic derivatives, pharmaceutical compositions comprising the same and applications of antitumor thereof” (ZHEJIANG UNIVERSITY, priority 2014, dated 2019).

Test [1] has as its system Human ovarian cancer cell strain OVCAR-8. Briefly: MTT assay, inhibition of tumor cell growth in vitro, 72 h. It is filed as cell-based. As to conditions: Homo sapiens, OVCAR-8, MTT, read-out: Antitumor proliferative activities of tumor cell (IC50, μM) OVCAR-8. The method in brief:
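OVCAR8 cells in RPMI 1640 plus FBS were seeded at 4000 cells/well and exposed for 72 h at 37 °C to compound at 50, 10, 2, 0.4 and 0.08 μM final, with 1% DMSO as blank. Inhibition was calculated from OD relative to control, and IC50 was derived by the Bliss method.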

The subject of test [2] is human colon cancer cell strain HCT-116. The description is as above. As to conditions: Homo sapiens, HCT-116, MTT, read-out: Antitumor proliferative activities of tumor cell (IC50, μM) HCT-116 (converted). It is filed as cell-based. The method in brief:
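Cells in RPMI 1640 with FBS, 4000 cells/well, exposed 72 h at 37 °C, 5% CO2 to final 50, 10, 2, 0.4 and 0.08 μM; 1% DMSO blank. MTT OD gives % inhibition versus control; IC50 derived by Bliss method.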

In a further test the target is T1, Akt1 (Homo sapiens, UniProt P31749).
T1 construct: purchased 32-021
Briefly: AKT1/PKBα KinEASE FP Fluorescein Green Assay (fluorescence polarization kinase kit). It is filed as biochemical. As to conditions: 1 h reaction, read-out: Inhibitory activities against Akt1 (IC50). The gist of the method:
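FP competition kinase assay: compounds (50 μM stock) with STK Substrate 3 and ATP, 1 h reaction at room temperature; stopped with stop/antibody mix, 4 h at room temperature, then polarization read. Inhibition derived from polarization values; IC50 calculated; triplicate wells.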

T1 sequence (P31749 whole entry): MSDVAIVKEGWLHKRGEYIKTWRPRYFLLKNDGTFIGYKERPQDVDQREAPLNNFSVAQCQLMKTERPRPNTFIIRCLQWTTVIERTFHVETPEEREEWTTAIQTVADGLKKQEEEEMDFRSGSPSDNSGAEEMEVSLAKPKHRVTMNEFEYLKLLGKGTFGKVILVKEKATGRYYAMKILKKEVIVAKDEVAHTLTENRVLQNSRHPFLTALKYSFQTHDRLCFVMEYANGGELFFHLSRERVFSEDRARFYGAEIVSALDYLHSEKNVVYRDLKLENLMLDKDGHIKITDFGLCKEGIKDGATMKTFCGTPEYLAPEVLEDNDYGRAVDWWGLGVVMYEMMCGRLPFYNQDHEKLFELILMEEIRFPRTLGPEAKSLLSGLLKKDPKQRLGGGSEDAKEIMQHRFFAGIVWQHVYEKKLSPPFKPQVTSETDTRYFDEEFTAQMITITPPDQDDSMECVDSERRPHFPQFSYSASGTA

Turning to `CNC(=O)CC1C[C@@H](c2ccc(F)c(F)c2)[C@H](NC(=O)c2ccc(-c3c(Cl)cnn3C)s2)CN1` (stereo partly drawn) [Compound 152, 5-(4-chloro-1-methyl-1H-pyrazol-5-yl)-N-((3S,4S)-4-(3,4-difluorophenyl)-6-(2-(methylamido)-2-oxoethyl)piperidin-3-yl)thiophene-2-formamide], the IC50 in test [1] was 1.41 µM; in test [2] it was 2.82 µM; on Akt1 it was 0.6 nM.

In the case of `CC(=O)NCCC1C[C@@H](c2ccc(F)c(F)c2)[C@H](NC(=O)c2cc(-c3c(Cl)cnn3C)c(Cl)o2)CN1` (stereo partly drawn) [Compound 126, N-((3S,4S)-6-(2-acetaminoethyl)-4-(3,4-difluorophenyl)piperidin-3-yl)-5-chloro-4-(4-chloro-1-methyl-1H-pyrazol-5-yl)furan-2-formamide], the IC50 in test [1] is 0.47 µM; in test [2], 5.82 µM; at Akt1, 0.2 nM.

On to `Cn1ncc(Cl)c1-c1ccc(C(=O)N[C@@H]2CNCC[C@H]2c2cccc(F)c2)cc1` [Compound 73, 4-(4-chloro-1-methyl-1H-pyrazol-5-yl)-N-((3S,4S)-4-(3-fluorophenyl)piperidin-3-yl)benzamide], for which the IC50 in test [1] was 2.45 µM; in test [2], 1.21 µM; on Akt1, 7 nM.

With `C[C@H]1CNC[C@@H](NC(=O)c2cc(-c3c(Cl)cnn3C)c(Cl)o2)[C@@H]1c1cccc(F)c1` [Compound 136, 5-chloro-4-(4-chloro-1-methyl-1H-pyrazol-5-yl)-N-((3S, 4S, 5R)-4-(3-fluorophenyl)-5-methylpiperidin-3-yl)furan-2-formamide], the IC50 is 3.68 µM in test [1], 2.81 µM in test [2] and 2 nM at Akt1.

With `CCc1cnn(C)c1-c1cccc(C(=O)N[C@H]2CNCC[C@@H]2c2ccc(Cl)cc2)c1Cl` (racemic) [Compound 53, 2-chloro-3-(4-ethyl-1-methyl-1H-pyrazol-5-yl)-N-(3,4-trans-4-(4-chlorophenyl)piperidin-3-yl)phenyl formamide], the IC50 is 4.69 µM in test [1], 2.66 µM in test [2] and 29 nM at Akt1.

Turning to `Cn1nccc1-c1ccc(C(=O)N[C@@H]2CNCC[C@H]2c2cccc(F)c2)s1` [Compound 146, N-((3S, 4S)-4-(3-fluorophenyl)piperidin-3-yl)-5-(1-methyl-1H-pyrazol-5-yl)thiophene-2-formamide], the IC50 in test [1] is 4.19 µM; in test [2], 0.44 µM; on Akt1, 7 nM.

In the case of `Cc1cnn(C)c1-c1cnc(C(=O)N[C@@H]2CNCC[C@H]2c2ccc(F)c(F)c2)cc1F` [Compound 62, 4-fluoro-5-(1,4-dimethyl-1H-pyrazol-5-yl)-N-((3S,4S)-4-(3,4-difluorophenyl)piperidin-3-yl)pyridinyl-2-formamide], the 50% inhibitory concentration (IC50) was 6.67 µM in test [1], 31.1 µM in test [2] and 626 nM at Akt1.

As to `Cn1ncc(Cl)c1-c1cc(C(=O)N[C@H]2CNC[C@@H]2c2ccc(C(F)(F)F)cc2)oc1Cl` (racemic) [Compound 69, 5-chloro-4-(4-chloro-1-methyl-1H-pyrazol-5-yl)-N-(3,4-trans-4-(4-trifluoromethylphenyl)pyrrolidin-3-yl)furan-2-formamide], the results for the IC50 (in test [1]; in test [2]; on Akt1) were 24.3 µM, 3.04 µM and 323 nM, respectively.

For the molecule `Cn1ncc(CO)c1-c1ccc(C(=O)N[C@@H]2CNCC[C@H]2c2cccc(F)c2)s1` [Compound 141, N-((3S, 4S)-4-(3-fluorophenyl)piperidin-3-yl)-5-(4-(hydroxylmethyl)-1-methyl-1H-pyrazol-5-yl)thiophene-2-formamide], the IC50 was 1.05 µM in test [1], 6.56 µM in test [2] and 12 nM at Akt1.

For `Cn1ncc(Cl)c1-c1cc(C(=O)N[C@H]2CNCC[C@@H]2c2ccc(C(F)(F)F)cc2)oc1Cl` [Compound 43, 5-chloro-4-(4-chloro-1-methyl-1H-pyrazol-5-yl)-N-((3R,4R)-4-(4-trifluoromethylphenyl)piperidin-3-yl)furan-2-formamide], the IC50 in test [1] is 3.58 µM; in test [2], 13.8 µM; at Akt1 it was 342 nM.

Turning to `Cn1ncc(Cl)c1-c1ccc(C(=O)N[C@@H]2CNCC[C@H]2c2ccc(Cl)cc2)c(C(F)(F)F)c1` [Compound 80, 4-(4-chloro-1-methyl-1H-pyrazol-5-yl)-N-((3S,4S)-4-(4-chlorophenyl)piperidin-3-yl)-2-(trifluoromethyl)benzamide], the IC50 in test [1] was 0.94 µM; in test [2], 2.51 µM; at Akt1, 1 nM.
